Reference: PMC12169615, “Fluorescent 4‑Nitrobenzo-2-oxa-1,3-diazole-Coupled Bile Acids as Probe Substrates of Hepatic and Intestinal Bile Acid Transporters of the Solute Carrier Families SLC10 and SLCO” (Journal of Medicinal Chemistry, 2025)

Assays:
[1] = Excitation-emission spectra of the 3-NBD-BA; assay type: physicochemical; conditions: NaCl-transport buffer, 1 pM compound concentration
Protocol: After the synthesis of this set of unconjugated as well as T- and G-conjugated 3β- and 3α-NBD-BA derivatives, namely 3β-NBD-CA (6a), 3β-NBD-CDCA (6b), 3β-NBD-DCA (6c), 3α-NBD-CA (6d), 3β-NBD-TCA (14a), 3β-NBD-TCDCA (14b), 3α-NBD-TCA (14d), 3β-NBD-GCA (16a), and 3α-NBD-GCA (16d) comprehensive transport studies were conducted with all fluorescent BA listed in Figure . Prior to the transport studies, the excitation and emission spectra of all fluorescent BA derivatives were determined to obtain the optimal emission and excitation wavelengths for subsequent fluorescent measurements at the fluorescence microscope and the fluorescent reader (Figure ). The excitation maxima (ExPeak) were at 468–470 nm and the emission maxima (EmPeak) at 538–540 nm for all fluorescent NBD-BA.
2 Excitation–emission-spectra of the 3-NBD-BA measured in NaCl-transport buffer at 1 pM compound concentration. The excitation (dotted line, ExPeak) and emission (solid line, EmPeak) peak wavelengths (in nm) are indicated for each compound. RFU, relative fluorescence units. […]

human ASBT = biological target: T1, human ASBT (Homo sapiens, UniProt Q12908); assay: Quantitative uptake of 3-NBD-BA in carrier-expressing HEK293 cells (fluorescence reader); assay type: cell-based; set-up: stably transfected with the full open reading frames of human NTCP, ASBT, SOAT, OATP1B1, and OATP1B3; expressed in transfected cells; conditions: ASBT-HEK293, 25 μM, 37 °C, +Na+ vs -Na+
T1 sequence (Q12908 1-348): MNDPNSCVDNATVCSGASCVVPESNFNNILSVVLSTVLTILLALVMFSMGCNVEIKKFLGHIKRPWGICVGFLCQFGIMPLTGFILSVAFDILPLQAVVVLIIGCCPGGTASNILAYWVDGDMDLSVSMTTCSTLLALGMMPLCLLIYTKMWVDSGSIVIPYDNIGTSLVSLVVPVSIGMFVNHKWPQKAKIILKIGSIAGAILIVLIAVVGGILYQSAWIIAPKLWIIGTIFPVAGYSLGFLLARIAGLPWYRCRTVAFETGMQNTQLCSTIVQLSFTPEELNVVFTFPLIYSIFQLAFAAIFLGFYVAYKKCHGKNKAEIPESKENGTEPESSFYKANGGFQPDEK
Protocol: For quantification of the transport activity of the synthesized NBD-BA, all cell lines were seeded on 96 well plates and transport experiments were performed under the same control conditions (-Na^+ control for the SLC10 carriers and nontransfected HEK293 cells for the OATP carriers) as before (Figure ). For each NBD-BA, a substrate concentration of 25 μM was used, and the uptake phase was terminated after 10 min of incubation at 37 °C. […] The transport ratios ranged from 3-fold to 39-fold. In direct comparison, 3α-NBD-TCA (14d) and 3α-NBD-GCA (16d) were transported better than their 3β-analogs 3β-NBD-TCA (14a) and 3β-NBD-GCA (16a), respectively, clearly pointing to a preference for the α-position over the β-position of the 3-NBD-label. In direct comparison between the taurine- or glycine-conjugation of the respective NBD-BA, there was a clear preference for 3α-NBD-GCA (16d) over 3α-NBD-TCA (14d), at least for NTCP and mAsbt, pointing to a favorable substrate recognition for glycine-conjugated NBD-BA.
5 Quantitative uptake experiments with the 3-NBD-BA in HEK293 cells stably expressing the human carriers NTCP, ASBT, SOAT, OATP1B1, and OATP1B3, or the mouse carriers mNtcp and mAsbt. For the SLC10 carriers, all transport experiments were performed in the presence (filled bars) and the absence (hatched bars) of sodium. For the OATP carriers, uptake into carrier-expressing cells (filled bars) was compared to uptake into non-carrier-expressing HEK293 cells (hatched bars). All cell lines were incubated at 37 °C for 10 min with the indicated 3-NBD-BA at 25 μM. Then, cells were washed with PBS and subjected to fluorescence detection. The following fluorescent BA were analyzed: 3α-NBD-TCA (14d), 3β-NBD-TCA (14a), 3α-NBD-GCA (16d), 3β-NBD-GCA (16a), 3β-NBD-TCDCA (14b), 3β-NBD-CDCA (6b), 3β-NBD-DCA (6c), 3α-NBD-CA (6d), and 3β-NBD-CA (6a). Data represent means ± SD of triplicate determinations of representative experiments. […] RFU, relative fluorescence units. TEXT PRINTED IN THE PICTURE: 3α-NBD-TCA (14d): NTCP: 9 X; mNtcp: 30 X; ASBT: 2 X; mAsbt: 14 X | 3ß-NBD-TCA (14a): NTCP: 12 X; mNtcp: 20 X; mAsbt: 18 X | 3α-NBD-GCA (16d): NTCP: 27 X; mNtcp: 26 X; ASBT: 3 X; mAsbt: 39 X | 3ß-NBD-GCA (16a): NTCP: 15 X; mNtcp: 14 X; mAsbt: 5 X | 3ß-NBD-TCDCA (14b): NTCP: 5 X; mNtcp: 3 X; mAsbt: 4 X | 3ß-NBD-CDCA (6b): mNtcp: < 2 X; ASBT: < 2 X; mAsbt: < 2 X; OATP1B1: < 2 X; OATP1B3: < 2 X | 3ß-NBD-DCA (6c): mNtcp: < 2 X; ASBT: < 2 X; mAsbt: < 2 X | 3α-NBD-CA (6d): mNtcp: 2 X; mAsbt: 4 X | 3ß-NBD-CA (6a): NTCP: 2 X; mNtcp: 2 X; mAsbt: 2 X DOUBTS OF THE COPYIST ABOUT THIS PICTURE: The picture prints no panel letters, so the chart titles (NTCP, mNtcp, ASBT, mAsbt, OATP1B1, OATP1B3) are written in front of the values as the target. / Substance labels: the sign after '3' is printed like 'ß' and may be meant as 'β'. / The 'ns' marks and significance asterisks were left out as statistics. The SOAT chart prints only 'ns'.

[2] = logP(o/w), octanol/water partition; conditions: 1:1 mixture of water and 1-octanol, fluorescence detection or liquid scintillation; for logP: 1-octanol/water, LogP(o/w)
Protocol: 9 Membrane permeability of the 3-NBD-BA and logP(o/w) values. […] The lipophilic and hydrophilic phases were separated by centrifugation and both phases were analyzed by fluorescence detection or liquid scintillation, respectively.
All NBD-BA were diluted to 1 pM in STB, and […] and emission spectra were measured from 300 to 650 nm (Spark Multimode Microplate, Tecan, Männedorf, Switzerland). […] The [^3H]-CA was generously provided by Prof. Dr. Alan Hofmann, University of California (San Diego, United States).

7α-Hydroxy-3β-[(7-nitro-2,1,3-benzoxadiazol-4-yl)amino]-5β-cholan-24-oate [6b]
Emission peak wavelength (EmPeak) [1]: 538 nm
Excitation peak wavelength (ExPeak) [1]: 468 nm
Specific transport ratio ASBT (25µM/10 min uptake) (human ASBT): <2x x-fold

12α-Hydroxy-3β-[(7-nitro-2,1,3-benzoxadiazol-4-yl)amino]-5β-cholan-24-oate [6c]
LogP(o/w) [2]: 2.147
Emission peak wavelength (EmPeak) [1]: 538 nm
Excitation peak wavelength (ExPeak) [1]: 468 nm
Specific transport ratio ASBT (25µM/10 min uptake) (human ASBT): <2x x-fold

C[C@H](CCC(=O)O)[C@H]1CC[C@H]2[C@@H]3[C@H](O)C[C@@H]4C[C@@H](Nc5ccc([N+](=O)[O-])c6nonc56)CC[C@]4(C)[C@H]3C[C@H](O)[C@]12C [6a, 7α,12α-Dihydroxy-3β-[(7-nitro-2,1,3-benzoxadiazol-4-yl)amino]-5β-cholan-24-oate]
logP [2]: > 2
Emission peak wavelength (EmPeak) [1]: 538 nm
Excitation peak wavelength (ExPeak) [1]: 468 nm
Specific transport ratio ASBT (25µM/10 min uptake) (human ASBT): ns

C[C@H](CCC(=O)O)[C@H]1CC[C@H]2[C@@H]3[C@H](O)C[C@@H]4C[C@H](Nc5ccc([N+](=O)[O-])c6nonc56)CC[C@]4(C)[C@H]3C[C@H](O)[C@]12C [6d, 7α,12α-Dihydroxy-3α-[(7-nitro-2,1,3-benzoxadiazol-4-yl)amino]-5β-cholan-24-oate]
logP [2]: 2.8
Emission peak wavelength (EmPeak) [1]: 538 nm
Excitation peak wavelength (ExPeak) [1]: 468 nm
Specific transport ratio ASBT (25µM/10 min uptake) (human ASBT): ns

C[C@H](CCC(=O)NCCS(=O)(=O)[O-])[C@H]1CC[C@H]2[C@@H]3[C@H](O)C[C@@H]4C[C@@H](Nc5ccc([N+](=O)[O-])c6nonc56)CC[C@]4(C)[C@H]3C[C@H](O)[C@]12C.[Na+] [14a]
logP [2]: 0.14
Emission peak wavelength (EmPeak) [1]: 538 nm
Excitation peak wavelength (ExPeak) [1]: 468 nm
Specific transport ratio ASBT (25µM/10 min uptake) (human ASBT): not transported and ns

C[C@H](CCC(=O)NCCS(=O)(=O)[O-])[C@H]1CC[C@H]2[C@@H]3[C@H](O)C[C@@H]4C[C@H](Nc5ccc([N+](=O)[O-])c6nonc56)CC[C@]4(C)[C@H]3C[C@H](O)[C@]12C.[Na+] [14d]
logP [2]: 0.03
LogP(o/w) [2]: 0.027
Emission peak wavelength (EmPeak) [1]: 538 nm
Excitation peak wavelength (ExPeak) [1]: 468 nm

C[C@H](CCC(=O)NCC(=O)O)[C@H]1CC[C@H]2[C@@H]3[C@H](O)C[C@@H]4C[C@@H](Nc5ccc([N+](=O)[O-])c6nonc56)CC[C@]4(C)[C@H]3C[C@H](O)[C@]12C [16a]
logP [2]: -0.01
Emission peak wavelength (EmPeak) [1]: 538 nm
Excitation peak wavelength (ExPeak) [1]: 468 nm
Specific transport ratio ASBT (25µM/10 min uptake) (human ASBT): not transported and ns

C[C@H](CCC(=O)NCC(=O)O)[C@H]1CC[C@H]2[C@@H]3[C@H](O)C[C@@H]4C[C@H](Nc5ccc([N+](=O)[O-])c6nonc56)CC[C@]4(C)[C@H]3C[C@H](O)[C@]12C [16d]
logP [2]: 0.462
Emission peak wavelength (EmPeak) [1]: 538 nm
Excitation peak wavelength (ExPeak) [1]: 468 nm
